Consider 58 compounds from patent US8022091B2, “Triazole derivative” (Taisho Pharmaceutical Co., Ltd., priority 2006, dated 2011).

T1 sequence (P21453 whole entry): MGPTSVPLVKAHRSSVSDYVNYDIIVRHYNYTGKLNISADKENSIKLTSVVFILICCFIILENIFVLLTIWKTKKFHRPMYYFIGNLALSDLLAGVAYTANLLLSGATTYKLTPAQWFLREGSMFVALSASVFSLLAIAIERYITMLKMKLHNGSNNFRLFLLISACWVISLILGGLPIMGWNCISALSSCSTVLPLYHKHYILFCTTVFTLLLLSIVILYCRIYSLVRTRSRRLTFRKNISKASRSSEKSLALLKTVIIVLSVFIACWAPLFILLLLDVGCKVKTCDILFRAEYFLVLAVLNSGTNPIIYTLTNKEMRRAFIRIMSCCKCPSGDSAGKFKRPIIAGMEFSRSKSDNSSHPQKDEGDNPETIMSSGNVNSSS

The assay concerns the target T1, human Edg-1 (S1P1) (Homo sapiens, UniProt P21453).
T1 construct: expressed in transfected cells; host or cells: HEK-293
The assay is described as follows: S1P1 binding assay: inhibition of [33P]-S1P binding to membrane fraction of HEK-293 cells transferred with the human Edg-1 (S1P1) gene. Conditions: test compound at 10 μM; inhibition of [33P]-S1P binding to the membrane fraction of HEK-293 cells expressing human Edg-1 (S1P1). The protocol: The membrane fraction was obtained by treating the cells with a solubilizing buffer (1 mM Tris/HCl, pH 7.2) for 10 minutes on ice, centrifuging at 1000×g for 5 minutes to remove insoluble fractions, and then centrifuging at 40000×g for 30 minutes at 4° C. The resulting membrane fraction was dissolved in a binding buffer (20 mM Tris-HCl, pH 7.4, 100 mM NaCl, 15 mM NaF, 2 mM deoxypyridoxine, 4 mg/mL fatty acid-free BSA), and then [^33P]-S1P (manufactured by ARC, final concentration 0.1 nM) and a DMSO solution (final concentration of the compound 10^−5M, final concentration of DMSO 0.1%) of the test compound were added. Thereafter, the mixture was stirred and then treated for one hour at 30° C. Using a harvester, the membrane fraction was harvested onto unifilter-96 GF/C filter (manufactured by Perkin Elmer), washing was carried out four times with the binding buffer, and the filter was dried. Twenty five μL Microscint 0 (manufactured by Perkin Elmer) was added, and radioactivity was measured using Top Count NXT (manufactured by Packard) to calculate the amount (A) of [^33P]-S1P bound to the membrane fraction at the time when the compound was added.
The same procedure was carried out in the absence of the test compound, and the amount (B) of [^33P]-S1P bound was calculated. Further, the same procedure was carried out in the absence of the test compound by use of HEK-293 cells to which no Edg-1 (S1P1) gene was introduced, and the background amount (C) of [^33P]-S1P bound was calculated.
Inhibition rate (%)=[1−(A−C)/(B−C)]×100
Further, concentrations (IC50) at the time when binding in the absence of the test compound was inhibited by 50% were calculated. The membrane system binding assay was carried out in the presence of test compounds with various concentrations, and the Edg-1 (S1P1) binding inhibition rates were calculated using the equation above. Then, IC50 values were calculated using Origin (Lightstone Corp.), a software for data analysis.
Turning to `CCn1c(Oc2ccc(F)cc2)nnc1[C@@H](C)NS(=O)(=O)c1cc(Cl)cc(Cl)c1` [Compound 213], the inhibition at 10 µM came out at 102%.

For the compound `CCn1c(Oc2ccc(F)cc2)nnc1[C@@H](C)NS(=O)(=O)c1cccc(Cl)c1C` [Compound 214], the inhibition at 10 µM was 102%.

As for `CCn1c(Oc2ccc(F)cc2)nnc1[C@@H](C)NS(=O)(=O)c1cccc(OC)c1` [Compound 215], the inhibition at 10 µM was 91.4%.

Consider `CCn1c(Oc2ccc(F)cc2)nnc1[C@@H](C)NS(=O)(=O)c1cc(F)c(Br)cc1F` [Compound 216], for which the inhibition at 10 µM stood at 88.9%.

As to `CCn1c(Oc2ccc(F)cc2)nnc1[C@@H](C)NS(=O)(=O)c1cc(Br)ccc1OC` [Compound 218], the inhibition at 10 µM came to 74.7%.

Consider `CCn1c(Oc2ccc(F)cc2)nnc1[C@@H](C)NS(=O)(=O)c1cc(F)ccc1C` [Compound 219], for which the inhibition at 10 µM was found to be 70.8%.

In the case of `Cc1c(C)c(C)c(S(=O)(=O)N[C@H](C)c2nnc(Oc3ccc(F)cc3)n2C)c(C)c1C` [Compound 220], the inhibition at 10 µM came to 93.7%.

With `CCn1c(Oc2ccc(F)cc2)nnc1[C@@H](C)NS(=O)(=O)c1cc(C)ccc1OC` [Compound 221], the inhibition at 10 µM turned out to be 69.2%.

Turning to `CCn1c(Oc2ccc(F)cc2)nnc1[C@@H](C)NS(=O)(=O)c1ccc(C#N)cc1` [Compound 223], the inhibition at 10 µM is 90.8%.

`CCn1c(Oc2ccc(F)cc2)nnc1[C@@H](C)NS(=O)(=O)c1ccc(Cl)cc1Cl` [Compound 226]: the inhibition at 10 µM stood at 80.4%.

For the compound `CCn1c(Oc2ccc(F)cc2)nnc1[C@@H](C)NS(=O)(=O)c1ccc(F)cc1F` [Compound 227], the inhibition at 10 µM is 51.4%.

`CCn1c(Oc2ccc(F)cc2)nnc1[C@@H](C)NS(=O)(=O)c1cc(OC)ccc1OC` [Compound 228]: the inhibition at 10 µM was 53.9%.

`CCn1c(Oc2ccc(F)cc2)nnc1[C@@H](C)NS(=O)(=O)c1cccc(Cl)c1` [Compound 231]: the inhibition at 10 µM came out at 65.1%.

With `CCn1c(Oc2ccc(F)cc2)nnc1[C@@H](C)NS(=O)(=O)c1ccc(C(C)C)cc1` [Compound 232], the inhibition at 10 µM came to 68.7%.

In the case of `CCn1c(Oc2ccc(F)cc2)nnc1[C@@H](C)NS(=O)(=O)c1cc(F)cc(Cl)c1C` [Compound 233], the inhibition at 10 µM amounted to 87.1%.

With `CCc1cc(Br)ccc1S(=O)(=O)N[C@H](C)c1nnc(Oc2ccc(F)cc2)n1CC` [Compound 234], the inhibition at 10 µM is 50.6%.

With `CCn1c(Oc2ccc(F)cc2)nnc1[C@@H](C)NS(=O)(=O)c1ccc(Br)cc1C` [Compound 235], the inhibition at 10 µM was found to be 82.9%.

Consider `CCn1c(Oc2ccc(F)cc2)nnc1[C@@H](C)NS(=O)(=O)c1ccc(F)c(F)c1F` [Compound 237], for which the inhibition at 10 µM came out at 64.8%.

On to `CCn1c(Oc2ccc(F)cc2)nnc1[C@@H](C)NS(=O)(=O)c1cc(F)c(F)cc1Cl` [Compound 240], for which the inhibition at 10 µM came to 82.5%.

Turning to `CCn1c(Oc2ccc(F)cc2)nnc1[C@@H](C)NS(=O)(=O)c1ccc(F)c(F)c1` [Compound 241], the inhibition at 10 µM came to 95.8%.

For the compound `CCn1c(Oc2ccc(F)cc2)nnc1[C@@H](C)NS(=O)(=O)c1ccc(Br)cc1F` [Compound 242], the inhibition at 10 µM worked out at 85.9%.

Regarding `CCn1c(Oc2ccc(F)cc2)nnc1[C@@H](C)NS(=O)(=O)c1cc(F)c(Cl)cc1F` [Compound 243], the inhibition at 10 µM came out at 90%.

Regarding `CCn1c(Oc2ccc(F)cc2)nnc1[C@@H](C)NS(=O)(=O)c1cc(Br)c(F)cc1F` [Compound 244], the inhibition at 10 µM stood at 94.6%.

Consider `CCn1c(Oc2ccc(F)cc2)nnc1[C@@H](C)NS(=O)(=O)c1cc(Cl)c(F)cc1F` [Compound 245], for which the inhibition at 10 µM worked out at 89.3%.

Turning to `CCn1c(Oc2ccc(F)cc2)nnc1[C@@H](C)NS(=O)(=O)c1cc(C)c(Cl)cc1Cl` [Compound 248], the inhibition at 10 µM came to 105%.

Take `CCn1c(Oc2ccc(F)cc2)nnc1[C@@H](C)NS(=O)(=O)c1cc(C(F)(F)F)ccc1Cl` [Compound 251]: the inhibition at 10 µM stood at 59%.

As to `CCn1c(Oc2ccc(F)cc2)nnc1[C@@H](C)NS(=O)(=O)c1cccc(F)c1` [Compound 252], the inhibition at 10 µM was 82.8%.

As to `CCn1c(Oc2ccc(F)cc2)nnc1[C@@H](C)NS(=O)(=O)c1cc(Cl)ccc1OC` [Compound 254], the inhibition at 10 µM was found to be 75.1%.

For the compound `CCn1c(Oc2ccc(F)cc2)nnc1[C@@H](C)NS(=O)(=O)c1c(C)cc(Cl)cc1Cl` [Compound 255], the inhibition at 10 µM turned out to be 86.4%.

For the compound `CCn1c(Oc2ccc(F)cc2)nnc1[C@@H](C)NS(=O)(=O)c1cc(F)c(F)cc1F` [Compound 256], the inhibition at 10 µM is 85.2%.

As for `CCn1c(Oc2ccc(F)cc2)nnc1[C@@H](C)NS(=O)(=O)c1cc(Br)ccc1Br` [Compound 257], the inhibition at 10 µM was determined as 78.2%.

For `CCn1c(Oc2ccc(F)cc2)nnc1[C@@H](C)NS(=O)(=O)c1ccc(-c2ccno2)s1` [Compound 258], the inhibition at 10 µM stood at 67.9%.

With `CCn1c(Oc2ccc(F)cc2)nnc1[C@@H](C)NS(=O)(=O)c1ccc(Br)cc1Br` [Compound 260], the inhibition at 10 µM is 74.1%.

As to `CCn1c(Oc2ccc(F)cc2)nnc1[C@@H](C)NS(=O)(=O)c1ccc(F)c(C#N)c1` [Compound 261], the inhibition at 10 µM stood at 73.6%.

On to `CCn1c(Oc2ccc(F)cc2)nnc1[C@@H](C)NS(=O)(=O)c1cc(C)cc(C)c1` [Compound 262], for which the inhibition at 10 µM is 79.6%.

`CCn1c(Oc2ccc(F)cc2)nnc1[C@@H](C)NS(=O)(=O)c1ccc(OC(F)F)cc1` [Compound 263]: the inhibition at 10 µM was found to be 82.6%.

Take `CCn1c(Oc2ccc(F)cc2)nnc1[C@@H](C)NS(=O)(=O)c1cccc(OC(F)F)c1` [Compound 264]: the inhibition at 10 µM is 95.9%.

`CCn1c(Oc2ccc(F)cc2)nnc1[C@@H](C)NS(=O)(=O)c1c(F)cc(F)cc1Br` [Compound 265]: the inhibition at 10 µM amounted to 59.1%.

In the case of `CCn1c(Oc2ccc(F)cc2)nnc1[C@@H](C)NS(=O)(=O)c1cc(F)cc(F)c1` [Compound 266], the inhibition at 10 µM amounted to 99%.

Regarding `CCn1c(Oc2ccc(F)cc2)nnc1[C@@H](C)NS(=O)(=O)c1ccc(Cl)cc1F` [Compound 267], the inhibition at 10 µM was 89.6%.

As to `CCn1c(Oc2ccc(F)cc2)nnc1[C@@H](C)NS(=O)(=O)c1cc(F)c(F)c(F)c1` [Compound 268], the inhibition at 10 µM was found to be 99.9%.

On to `CCn1c(Oc2ccc(F)cc2)nnc1[C@@H](C)NS(=O)(=O)c1ccc(F)cc1Br` [Compound 269], for which the inhibition at 10 µM was 91.5%.

On to `CCn1c(Oc2ccc(F)cc2)nnc1[C@@H](C)NS(=O)(=O)c1ccc(C(F)(F)F)cc1Br` [Compound 270], for which the inhibition at 10 µM is 73%.

Take `CCn1c(Oc2ccc(F)cc2)nnc1[C@@H](C)NS(=O)(=O)c1cc(C(F)(F)F)ccc1Br` [Compound 271]: the inhibition at 10 µM is 57.1%.

As for `CCn1c(Oc2ccc(F)cc2)nnc1[C@@H](C)NS(=O)(=O)c1ccc(C)c(F)c1` [Compound 272], the inhibition at 10 µM worked out at 104%.

For `CCn1c(Oc2ccc(F)cc2)nnc1[C@@H](C)NS(=O)(=O)c1ccc(F)cc1C` [Compound 273], the inhibition at 10 µM turned out to be 71.6%.

For `CCn1c(Oc2ccc(F)cc2)nnc1[C@@H](C)NS(=O)(=O)c1cc(Cl)ccc1F` [Compound 274], the inhibition at 10 µM is 53.5%.

Turning to `CCn1c(Oc2ccc(F)cc2)nnc1[C@@H](C)NS(=O)(=O)c1ccc(Br)c(F)c1` [Compound 275], the inhibition at 10 µM came out at 107%.

For the compound `CCn1c(Oc2ccc(F)cc2)nnc1[C@@H](C)NS(=O)(=O)c1ccc(Br)cc1Cl` [Compound 276], the inhibition at 10 µM was determined as 94.4%.

Consider `CCn1c(Oc2ccc(F)cc2)nnc1[C@@H](C)NS(=O)(=O)c1cc(C)ccc1F` [Compound 279], for which the inhibition at 10 µM was 79.6%.

Consider `CCn1c(Oc2ccc(F)cc2)nnc1[C@@H](C)NS(=O)(=O)c1cccc(Cl)c1F` [Compound 280], for which the inhibition at 10 µM came out at 87.3%.

Take `CCn1c(Oc2ccc(F)cc2)nnc1[C@@H](C)NS(=O)(=O)CC1CCCCC1` [Compound 286]: the inhibition at 10 µM came out at 60.6%.

`CCn1c(Oc2ccc(F)cc2)nnc1[C@@H](C)NS(=O)(=O)c1ccc2c(c1)OCCO2` [Compound 289]: the inhibition at 10 µM was 106%.

As to `CCn1c(Oc2ccc(F)cc2)nnc1[C@@H](C)NS(=O)(=O)c1ccc2nsnc2c1` [Compound 292], the inhibition at 10 µM was determined as 107%.

Consider `CCn1c(Oc2ccc(F)cc2)nnc1[C@@H](C)NS(=O)(=O)c1ccsc1` [Compound 294], for which the inhibition at 10 µM is 50.8%.

On to `CCn1c(Oc2ccc(F)cc2)nnc1[C@@H](C)NS(=O)(=O)c1cc(C)sc1C` [Compound 300], for which the inhibition at 10 µM came out at 82.1%.

For the compound `CCn1c(Oc2ccc(F)cc2)nnc1[C@@H](C)NS(=O)(=O)c1ccc(OC)cc1OC` [Compound 301], the inhibition at 10 µM worked out at 78.8%.

In the case of `CCn1c(Oc2ccc(F)cc2)nnc1[C@@H](C)NS(=O)(=O)c1ccc(C(F)(F)F)cc1Cl` [Compound 303], the inhibition at 10 µM turned out to be 77.4%.

Usually inhibition stands for the drop in the measured response relative to a control, in per cent.
